≈ marks a conversion by molar mass, not a printed value. Marks after values point to notes of the source that are not given here.
Assays:
[1] = Inhibition of linoleic acid peroxidation (LP), AAPH-initiated; design: tested at 100 µM; conditions: 100 μΜ, 37 °C
Experimental: To initiate lipid peroxidation, the free radical AAPH was used[10]. The final solution in the UV cuvette consisted of 10 µl sodium linoleate solution (c = 16 mM) and 0.93 ml phosphate buffer pH 7.4 (c = 50 mM). Afterwards, 10 µl of the tested compound solution in DMSO (final concentration 0.1 mM) and 50 µl of AAPH solution (c = 40 mM) were added. The experiment was performed at 37 °C under air. Oxidation of linoleic acid sodium salt was monitored at 234 nm. The assay was repeated at least in triplicate and the standard deviation of absorbance was less than 10% of the mean. Trolox was used under the same experimental conditions as a reference compound.

[2] = Interaction with 1,1-diphenyl-2-picrylhydrazyl (DPPH); conditions: 100 μΜ
Experimental: To a solution of DPPH in absolute ethanol, an appropriate volume of the tested compound solution (0.1 mM final concentration) dissolved in DMSO was added. Absorbance was recorded at 517 nm after 20 and 60 min at room temperature (Lambda 20 double beam spectrophotometer, Perkin-Elmer, UK). Experiments were repeated at least in triplicate and the standard deviation of absorbance was less than 10% of the mean[10]. NDGA was used under the same experimental conditions as a reference compound.

Candida kefyr ATCC 2512 = experiment: MIC determination (broth micro-dilution); format: cell-based; conditions: Kluyveromyces marxianus, ATCC2512
Experimental: (§1) Before analysis, compounds 5a–f were dissolved in 96% ethanol in a concentration of 2 mg/ml as stock solutions. Inoculums were prepared with fresh cultures of microbial strains, cultured on tryptic-soy agar or Sabouraud 2% (m/v) dextrose agar for 18 h (48–72 h for fungi) at 30 °C with physiological saline containing approximately […]. Inoculum density (0.5 McFarland units) was adjusted with a bio Mériex (France) densitometer. Minimum inhibitory concentration (MIC) was determined by the twofold micro-dilution method in Mu¨ller–Hinton broth for bacterial strains and RPMI 1640 + 2% m/v dextrose for fungi according to the EUCAST recommendations in a sterile 96-well flat-bottom plastic tissue culture plate. MIC was determined using a linear regression curve after incubation of compounds and reading the optical density at 570 nm using an iEMS microplate reader. […] All tests were performed in triplicate and expressed as the mean.

[3] = system: Staphylococcus aureus ATCC 25213; experiment: MIC determination (broth micro-dilution); format: cell-based; conditions: ATCC25213
Experimental: as §1

[4] = system: Candida krusei ATCC 14243; experiment: MIC determination (broth micro-dilution); format: cell-based; conditions: Pichia kudriavzevii, ATCC14243
Experimental: as §1

[5] = system: Candida albicans ATCC 10231; experiment: MIC determination (broth micro-dilution); format: cell-based; conditions: ATCC10231
Experimental: as §1

[6] = system: Burkholderia caepacia ATCC 25416; experiment: MIC determination (broth micro-dilution); format: cell-based; conditions: ATCC25416
Experimental: as §1

[7] = system: Pseudomonas aeruginosa ATCC 9027; experiment: MIC determination (broth micro-dilution); format: cell-based; conditions: ATCC9027
Experimental: as §1

[8] = system: Escherichia coli ATCC 10536; experiment: MIC determination (broth micro-dilution); format: cell-based; conditions: ATCC10536
Experimental: as §1

[9] = system: Aspergillus niger ATCC 16404; experiment: MIC determination (broth micro-dilution); format: cell-based; conditions: ATCC16404
Experimental: as §1

[10] = system: Bacillus subtilis ATCC 6633; experiment: MIC determination (broth micro-dilution); format: cell-based; conditions: ATCC6633
Experimental: as §1

[11] = system: Staphylococcus aureus ATCC 6538; experiment: MIC determination (broth micro-dilution); format: cell-based; conditions: ATCC6538
Experimental: as §1

[12] = system: Escherichia coli ATCC 8739; experiment: MIC determination (broth micro-dilution); format: cell-based; conditions: ATCC8739
Experimental: as §1

[13] = system: Enterococcus hyrae ATCC 8043; experiment: MIC determination (broth micro-dilution); format: cell-based; conditions: ATCC8043
Experimental: as §1

[14] = system: Staphylococcus aureus ATCC 25923; experiment: MIC determination (broth micro-dilution); format: cell-based; conditions: ATCC25923
Experimental: as §1

[15] = system: Bacillus cereus ATCC 11778; experiment: MIC determination (broth micro-dilution); format: cell-based; conditions: ATCC11778
Experimental: as §1

[16] = system: Kocuria rhizophila ATCC 9341; experiment: MIC determination (broth micro-dilution); format: cell-based; conditions: ATCC9341
Experimental: as §1

[17] = system: Candida parapsylosis ATCC 22019; experiment: MIC determination (broth micro-dilution); format: cell-based; conditions: ATCC22019
Experimental: as §1

[18] = system: Pseudomonas aeruginosa ATCC 27853; experiment: MIC determination (broth micro-dilution); format: cell-based; conditions: ATCC27853
Experimental: as §1

[19] = system: Issatchenkia orientalis Kudrjanzev ATCC 6258; experiment: MIC determination (broth micro-dilution); format: cell-based; conditions: Pichia kudriavzevii, ATCC6258
Experimental: as §1

[20] = system: Candida tropicalis ATCC 750; experiment: MIC determination (broth micro-dilution); format: cell-based; conditions: ATCC750
Experimental: as §1

[21] = system: Enterococcus faecalis ATCC 29212; experiment: MIC determination (broth micro-dilution); format: cell-based; conditions: ATCC29212
Experimental: as §1

[22] = system: Candida albicans ATCC 90028; experiment: MIC determination (broth micro-dilution); format: cell-based; conditions: ATCC90028
Experimental: as §1

S. aureus strains = experiment: MIC determination, S. aureus strains; format: cell-based, Staphylococcus aureus
Experimental: as §1

Row | SMILES | LP inhibition (%) ± SD [1] | DPPH-reducing ability 20 min [2] | DPPH-reducing ability 60 min [2] | MIC (Candida kefyr ATCC 2512) | MIC [3] | MIC [4] | MIC [5] | MIC [6] | MIC [7] | MIC [8] | MIC [9] | MIC [10] | MIC [11] | MIC [12] | MIC [13] | MIC [14] | MIC [15] | MIC [16] | MIC [17] | MIC [18] | other results
1 | COc1cc(NC(C)CCCNC(=O)NC(CC(C)C)C(=O)NC(c2ccccc2)c2ccccc2)c2ncccc2c1 (stereo not shown) [Compound 5a, N-(diphenylmethyl)-2-[({4-[(6-methoxyquinolin-8-yl)amino]pentyl}carbamoyl)amino]-4-methylpentanamide] | 15 ± 0.7% | 6^b % | 5^b % | > 100 µg/mL | 6.5 µg/mL (≈ 11.2 µM) | > 100 µg/mL | > 100 µg/mL | 65 µg/mL (≈ 112 µM) | 60 µg/mL (≈ 103 µM) | > 100 µg/mL | > 100 µg/mL | 50 µg/mL (≈ 85.9 µM) | 12.5 µg/mL (≈ 21.5 µM) | > 100 µg/mL | > 100 µg/mL | 15 µg/mL (≈ 25.8 µM) | 70 µg/mL (≈ 120 µM) | 25 µg/mL (≈ 43 µM) | > 100 µg/mL | 25 µg/mL (≈ 43 µM) | melting point: 184.5 to 185.5 °C; MIC [19]: > 100 µg/mL; MIC [20]: > 100 µg/mL; MIC [21]: > 100 µg/mL; MIC [22]: > 100 µg/mL; MIC (S. aureus strains; Staphylococcus aureus, S. aureus strains, lowest value quoted in text): 6.5 µg/mL (≈ 11.2 µM); MIC range (S. aureus strains; tested Staphylococcus spp.): 6.5 to 15 µg/mL
2 | COc1cc(NC(C)CCCNC(=O)NC(C(=O)N(C)C(c2ccccc2)c2ccccc2)c2ccccc2)c2ncccc2c1 (stereo not shown) [Compound 5b, N-(diphenylmethyl)-2-[({4-[(6-methoxyquinolin-8-yl)amino]pentyl}carbamoyl)amino]-N-methyl-2-phenylacetamide] | 92 ± 3.2% | 7^b % | 5^b % | > 100 µg/mL | 60 µg/mL (≈ 97.4 µM) | > 100 µg/mL | > 100 µg/mL | > 100 µg/mL | > 100 µg/mL | > 100 µg/mL | > 100 µg/mL | > 100 µg/mL | > 100 µg/mL | > 100 µg/mL | > 100 µg/mL | 65 µg/mL (≈ 106 µM) | > 100 µg/mL | > 100 µg/mL | > 100 µg/mL | > 100 µg/mL | MIC [19]: > 100 µg/mL; MIC [20]: > 100 µg/mL; MIC [21]: > 100 µg/mL; MIC [22]: > 100 µg/mL
3 | COc1cc(NC(C)CCCNC(=O)NC(C(=O)NC(c2ccccc2)c2ccc(Cl)cc2)c2ccccc2)c2ncccc2c1 (stereo not shown) [Compound 5c, N-[(4-chlorophenyl)(phenyl)methyl]-2-[({4-[(6-methoxyquinolin-8-yl)amino]pentyl}carbamoyl)amino]-2-phenylacetamide] | 99 ± 2.8% | 2^b % | 2^b % | > 100 µg/mL | > 100 µg/mL | > 100 µg/mL | > 100 µg/mL | 70 µg/mL (≈ 110 µM) | 50 µg/mL (≈ 78.6 µM) | 60 µg/mL (≈ 94.3 µM) | > 100 µg/mL | > 100 µg/mL | > 100 µg/mL | 60 µg/mL (≈ 94.3 µM) | > 100 µg/mL | > 100 µg/mL | > 100 µg/mL | > 100 µg/mL | > 100 µg/mL | 25 µg/mL (≈ 39.3 µM) | MIC [19]: > 100 µg/mL; MIC [20]: > 100 µg/mL; MIC [21]: > 100 µg/mL; MIC [22]: > 100 µg/mL
4 | COc1cc(NC(C)CCCNC(=O)NC(C(=O)NC(c2ccccc2)c2ccc(Cl)cc2)c2ccc(Cl)cc2)c2ncccc2c1 (stereo not shown) [Compound 5e, 2–(4-chlorophenyl)-N-[(4-chlorophenyl)(phenyl)methyl]-2-[({4-[(6-methoxyquinolin-8-yl)amino]pentyl}carbamoyl)amino]acetamide] | 80 ± 2.7% | 1^b % | 1^b % | > 100 µg/mL | > 100 µg/mL | > 100 µg/mL | > 100 µg/mL | > 100 µg/mL | > 100 µg/mL | 45 µg/mL (≈ 67.1 µM) | > 100 µg/mL | > 100 µg/mL | > 100 µg/mL | 60 µg/mL (≈ 89.5 µM) | > 100 µg/mL | > 100 µg/mL | > 100 µg/mL | > 100 µg/mL | > 100 µg/mL | > 100 µg/mL | melting point: 150 to 151.5 °C; MIC [19]: > 100 µg/mL; MIC [20]: > 100 µg/mL; MIC [21]: > 100 µg/mL; MIC [22]: > 100 µg/mL
5 | COc1ccc(C(=NNC(=O)C(NC(=O)NCCCC(C)Nc2cc(OC)cc3cccnc23)c2ccc(Cl)cc2)c2ccccc2)cc1 (stereo not shown) [Compound 5f, 3-[(4-chlorophenyl)({N'-[(4-methoxyphenyl)(phenyl)methylidene]hydrazinecarbonyl})methyl]-1-{4-[(6-methoxyquinolin-8-yl)amino]pentyl}urea] | 90 ± 3.6% | 2^b % | 2^b % | > 100 µg/mL | > 100 µg/mL | > 100 µg/mL | > 100 µg/mL | > 100 µg/mL | > 100 µg/mL | > 100 µg/mL | > 100 µg/mL | > 100 µg/mL | > 100 µg/mL | > 100 µg/mL | > 100 µg/mL | > 100 µg/mL | > 100 µg/mL | > 100 µg/mL | > 100 µg/mL | > 100 µg/mL | MIC [19]: > 100 µg/mL; MIC [20]: > 100 µg/mL; MIC [21]: > 100 µg/mL; MIC [22]: > 100 µg/mL
